Measured values from US8183383B2, “Protein tyrosine phosphatase 1B inhibitor, preparation methods and uses thereof” (Shanghai Institute of Materia Medica, Chinese Academy of …, priority 2007, dated 2012).

Biological target: T1, hPTP1B (Homo sapiens, UniProt P18031)
T1 construct: The catalytic structural domain of hPTP1B was expressed in E-coli system by a molecular biology protocol; made in house; host or cells: E. coli
T1 sequence (P18031 3-277 limits assumed): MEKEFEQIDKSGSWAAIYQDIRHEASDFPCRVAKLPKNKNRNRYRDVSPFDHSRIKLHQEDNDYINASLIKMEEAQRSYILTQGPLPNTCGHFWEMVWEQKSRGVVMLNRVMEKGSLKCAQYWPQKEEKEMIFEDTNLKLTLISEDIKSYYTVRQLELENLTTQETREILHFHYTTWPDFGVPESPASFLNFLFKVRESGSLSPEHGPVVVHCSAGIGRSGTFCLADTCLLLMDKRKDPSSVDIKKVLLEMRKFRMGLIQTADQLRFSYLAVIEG
Test: PTP1B inhibition test (pNPP hydrolysis, absorption at 410 nm)
Type: biochemical
Details: recombinant hPTP1B catalytic domain 40 nM, 2 mM pNPP, pH 7.0, 2% DMSO; read-out: IC50(μM), inhibitory activity of the test compounds against PTP1B
Description: 1) Test principle: The catalytic structural domain of hPTP1B was expressed in E-coli system by a molecular biology protocol. The purified hPTP1B recombinant protein can hydrolyze the phosphoester linkage of the pNPP substrate to obtain a product which has a strong light absorption at 410 nm. Therefore, the variation of the enzyme activity and the inhibitory activity of a compound against the enzyme can be observed by directly monitoring the changes in the light absorption at 410 nm. A typical activity assay system is as follows: 50 mM Mops, PH 7.0, 1 mM EDTA, 2 mM DTT, 2 mM PNPP, 2% DMSO, 40 nM hPTP1B.
2) Measuring Index: The light absorption was dynamically measured at 410 nm for 3 min. The slope of the first-order reaction of the dynamic curve thereof was considered as the activity index of the enzymes.
3) Measurement: • 1. 1 mg sample was dissolved in 200 μL DMSO. To each wall of the A2-H11 of a 96-wells polypropylene plate, 20 μL of the solution was added, followed by addition of 80 μL DMSO. The plate was used as mother plate. • 2. To each corresponding wall of a 96-wells polypropylene plate, 2 μL of sample was added with a Biomek 2000 automation workstation. The plate was used as daughter plate for screening. • 3. To each wall of A1-D1 and E12-H12, 2 μL, DMSO was added. These walls were regarded as 100% of enzyme activity for control. • 4. To each wall of A12-D12 and E1-H1, 2 μL positive control with different concentrations (four concentrations prepared by double-fold dilution from […]) was added respectively. • 5. To each wall of A1-H12, 88 μL Assay mix was added respectively. • 6. To each wall of A1-H12, 10 μL hPTP1B was added respectively. • 7. The light absorption was measured at 410 nm for 3 min on a SpectraMAX 340 spectrometer. • 8. Exporting the output into a TXT file, and opening the file with Excel. The average of the Vmax values of A1-D1 and E12-H12 was considered as 100% of enzyme activity.
4) Results: The screening results were the % inhibitory rate against the enzyme when the compound concentration was 20 μg/mL. 1050 value was calculated according to a conventional screening when the inhibitory rate exceeded 50%. The […] value of the positive control, 4-[4-(4-oxalyl-phenoxymethyl)-benzyloxy]-phenyl-oxo-acetic acid, is 5.4 μM [Christopher T. Seto, et al. J. Med. Chem., 2002, 45, 3946-3952].

Structure (SMILES) | IC50 [µM]
CCOC(=O)/C(C)=C\C(C)=C\c1csc([C@H](Cc2ccc(OCc3ccccc3)cc2)NC(=O)C2CC2)n1 [WY530s] | > 35
CC(=C\c1csc([C@H](Cc2ccc(OCc3ccccc3)cc2)NC(=O)C2CCCCC2)n1)/C=C(\C)C(=O)O [WY544-2] | 11.3
C/C(=C/C(C)=C/c1csc([C@H](Cc2ccc(OCc3ccccc3)cc2)NC(=O)C2CCCCC2)n1)C(=O)O [WY544a] | 4.4
CCOC(=O)/C(C)=C\C(C)=C\c1csc([C@H](Cc2ccc(OCc3ccccc3)cc2)NC(=O)C2CCC2)n1 [WY544s] | > 40
CCOC(=O)/C(C)=C\C(C)=C\c1csc([C@H](Cc2ccc(OCc3ccccc3)cc2)NC(=O)C(=O)CO)n1 [WY548] | > 35
CCOC(=O)/C(C)=C\C(C)=C\c1csc([C@H](Cc2ccc(OCc3ccccc3)cc2)NC(=O)c2ccco2)n1 [WY556s] | > 40
CCOC(=O)/C(C)=C\C(C)=C\c1csc([C@H](Cc2ccc(OCc3ccccc3)cc2)NC(=O)C(=O)C2CC2)n1 [WY558] | 8.14
C/C(=C/C(C)=C/c1csc([C@H](Cc2ccc(OCc3ccccc3)cc2)NC(=O)CC2CCCCC2)n1)C(=O)O [WY558a] | 9.32
CCOC(=O)/C(C)=C\C(C)=C\c1csc([C@H](Cc2ccc(OCc3ccccc3)cc2)NC(=O)C(F)(F)F)n1 [WY558f] | > 35
CCOC(=O)/C(C)=C\C(C)=C\c1csc([C@H](Cc2ccc(OCc3ccccc3)cc2)NC(=O)C2CCCC2)n1 [WY558s] | 12.7
CCOC(=O)/C(C)=C\C(C)=C\c1csc([C@H](Cc2ccc(OCc3ccccc3)cc2)NC(=O)C2CCCO2)n1 (stereo partly shown) [WY560s] | > 40
CCOC(=O)/C(C)=C\C(C)=C\c1csc([C@H](Cc2ccc(OCc3ccccc3)cc2)NC(=O)CC(C)(C)C)n1 [WY560t] | 20.2
CCOC(=O)/C(C)=C\C(C)=C\c1csc([C@H](Cc2ccc(OCc3ccccc3)cc2)NC(=O)C(=O)COC)n1 [WY562] | 10.2
CCOC(=O)/C(C)=C\C(C)=C\c1csc([C@H](Cc2ccc(OCc3ccccc3)cc2)NC(=O)COC(C)=O)n1 [WY562s] | > 40
CCOC(=O)/C(C)=C\C(C)=C\c1csc([C@H](Cc2ccc(OCc3ccccc3)cc2)NC(=O)c2ccccc2)n1 [WY566s] | 15.2
CCOC(=O)/C(C)=C/C(C)=C/c1csc([C@H](Cc2ccc(OCc3ccccc3)cc2)NC(=O)C2CCCCC2)n1 [WY572-2] | 6.38
CCOC(=O)/C(C)=C/C(C)=C\c1csc([C@H](Cc2ccc(OCc3ccccc3)cc2)NC(=O)C2CCCCC2)n1 [WY572-3] | 8.69
CCOC(=O)/C(C)=C\C(C)=C/c1csc([C@H](Cc2ccc(OCc3ccccc3)cc2)NC(=O)C2CCCCC2)n1 [WY572-4] | 7.9

Other lines, results leading:

IC50 [µM] | Structure (SMILES)
34.2 | CCOC(=O)/C(C)=C\C(C)=C\c1csc([C@H](Cc2ccccc2)NC(=O)C2CCCCC2)n1 [WY466h]
27.8 | CCOC(=O)/C(C)=C\C(C)=C\c1csc([C@H](Cc2ccc(O)cc2)NC(=O)C2CCCCC2)n1 [WY482h]
30.1 | CCOC(=O)/C(C)=C\C(C)=C\c1csc([C@H](Cc2ccc(OC)cc2)NC(=O)C2CCCCC2)n1 [WY496h]
> 40 | C=CCc1cc(C[C@H](NC(=O)C2CCCCC2)c2nc(/C=C(C)/C=C(/C)C(=O)OCC)cs2)ccc1O [WY522b]
34.4 | C=CCOc1ccc(C[C@H](NC(=O)C2CCCCC2)c2nc(/C=C(C)/C=C(/C)C(=O)OCC)cs2)cc1 [WY522h]
> 40 | CCOC(=O)/C(C)=C\C(C)=C\c1csc([C@H](Cc2ccc(OCCO)cc2)NC(=O)C2CCCCC2)n1 [WY526h]
22.1 | CCCCOc1ccc(C[C@H](NC(=O)C2CCCCC2)c2nc(/C=C(C)/C=C(/C)C(=O)OCC)cs2)cc1 [WY538h]
> 40 | CCOC(=O)/C(C)=C\C(C)=C\c1csc([C@H](Cc2ccc(OCC(=O)O)cc2)NC(=O)C2CCCCC2)n1 [WY540a]
> 40 | CCOC(=O)/C(C)=C\C(C)=C\c1csc([C@H](Cc2ccc(-c3ccccc3)cc2)NC(=O)C2CCCCC2)n1 [WY542h]
> 40 | CCOC(=O)COc1ccc(C[C@H](NC(=O)C2CCCCC2)c2nc(/C=C(C)/C=C(/C)C(=O)OCC)cs2)cc1 [WY568h]
